In PMC9774488, “The ER Aminopeptidases, ERAP1 and ERAP2, synergize to self-modulate their respective activities” (Frontiers in Immunology, 2022):
pIC50: −log10 of the molar value. Where a SMILES comes first, the peptide text is derived from it.

Target: ERAP2 (Homo sapiens, UniProt Q6P179)
Test: biochemical
Procedure: Substrate hydrolysis was assessed by measuring the fluorescence of free AMC at 14-s intervals, at 380nm and 460 nm excitation and emission wavelengths, respectively, in a Fluostar Optima Multiwave Plate Reader (BMG Labtec, Ortenberg, Germany).

Chain of ERAP2 (Q6P179 whole entry): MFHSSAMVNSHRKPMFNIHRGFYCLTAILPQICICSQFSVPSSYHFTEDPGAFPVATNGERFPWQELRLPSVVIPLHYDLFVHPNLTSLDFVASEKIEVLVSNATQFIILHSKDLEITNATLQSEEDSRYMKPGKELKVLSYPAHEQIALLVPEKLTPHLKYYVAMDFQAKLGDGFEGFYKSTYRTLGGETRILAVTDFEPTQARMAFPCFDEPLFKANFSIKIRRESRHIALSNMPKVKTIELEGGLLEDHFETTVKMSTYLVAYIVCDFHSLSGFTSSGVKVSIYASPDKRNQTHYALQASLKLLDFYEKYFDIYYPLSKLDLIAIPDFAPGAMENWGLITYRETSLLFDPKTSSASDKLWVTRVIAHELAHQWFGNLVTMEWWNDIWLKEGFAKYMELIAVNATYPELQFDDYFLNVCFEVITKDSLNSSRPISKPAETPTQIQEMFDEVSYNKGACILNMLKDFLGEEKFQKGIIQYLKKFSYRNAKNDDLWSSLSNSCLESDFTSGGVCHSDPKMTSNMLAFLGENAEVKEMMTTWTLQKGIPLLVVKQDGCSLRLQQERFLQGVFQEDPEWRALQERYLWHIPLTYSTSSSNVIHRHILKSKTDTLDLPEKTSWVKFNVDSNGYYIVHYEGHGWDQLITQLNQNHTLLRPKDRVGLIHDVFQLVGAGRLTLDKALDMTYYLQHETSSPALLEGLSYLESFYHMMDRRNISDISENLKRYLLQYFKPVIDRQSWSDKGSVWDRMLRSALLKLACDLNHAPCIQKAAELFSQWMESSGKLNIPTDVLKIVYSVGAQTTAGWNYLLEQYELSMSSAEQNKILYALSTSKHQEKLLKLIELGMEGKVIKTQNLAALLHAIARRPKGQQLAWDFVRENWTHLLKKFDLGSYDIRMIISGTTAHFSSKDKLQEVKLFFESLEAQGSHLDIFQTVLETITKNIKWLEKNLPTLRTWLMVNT

pIC50	SMILES
4.73	CC[C@H](C)[C@H](NC(=O)[C@H](CCC(N)=O)NC(=O)[C@H](Cc1ccccc1)NC(=O)[C@@H](NC(=O)[C@H](CC(=O)O)NC(=O)CNC(=O)[C@H](Cc1ccc(O)cc1)NC(=O)[C@H](CCCNC(=N)N)NC(=O)[C@H](CCCNC(=N)N)NC(=O)[C@H](C)NC(=O)[C@@H](N)CC(C)C)C(C)C)C(=O)O (H-LARRYGDVFQI-OH)
4.88	CC(C)C[C@H](NC(=O)[C@H](CCCCN)NC(=O)[C@H](CC(=O)O)NC(=O)CNC(=O)[C@H](Cc1ccccc1)NC(=O)[C@H](CCCNC(=N)N)NC(=O)[C@H](CCCNC(=N)N)NC(=O)[C@H](CC(C)C)NC(=O)[C@@H](N)CCC(N)=O)C(=O)N[C@@H](CC(N)=O)C(=O)N[C@@H](Cc1ccccc1)C(=O)O (H-QLRRFGDKLNF-OH)
5.54	CC(C)C[C@H](NC(=O)[C@H](Cc1ccc(O)cc1)NC(=O)[C@@H]1CCCN1C(=O)[C@H](CO)NC(=O)[C@H](CCCCN)NC(=O)CNC(=O)[C@H](Cc1ccc(O)cc1)NC(=O)[C@H](CCCNC(=N)N)NC(=O)[C@H](C)NC(=O)[C@H](CC(C)C)NC(=O)[C@@H](N)CO)C(=O)N[C@@H](Cc1ccc(O)cc1)C(=O)O (H-SLARYGKSPYLY-OH)
